Measurements as given in patent US20240300943A1, “NOVEL SALTS OF HETEROCYCLIC COMPOUND AS PROTEIN KINASE INHIBITOR AND USES THEREOF” (HK INNO.N CORPORATION, priority 2021, published 2024).

Experiments:
[1] = system: JAK2; experiment: Human whole blood assay, JAK2; assay type: cell-based; details: cytokine-induced STAT phosphorylation
Procedure: A stock solution of Compound 1 obtained according to Preparation Example 1 was diluted with distilled water and then serially diluted at ⅕ with 4% DMSO. 5 μL of test material was added to 100 μL of whole blood collected using a 1.7 mL eppendorf tube, mixed, and incubated at 37° C. for 45 minutes.
IL-6 (10 μg/ml) was diluted with 0.1% BSA/DW to reach 1 μg/mL each. 5 μL of IL-6 was added (at a final concentration of 50 ng/mL) and incubated at 37° C. for 15 minutes. At this time, 5 μL of DPBS was added as a non-stimulated control group. Lyse/fix buffer 5× was diluted 1× in distilled water and used. […]
For double staining of CD4 and pSTATI, anti-[…] and anti-pSTATI were mixed in a staining buffer and added to each of the samples. […] On the next day, the results were analyzed using FACSCanto II. […]
The numerical values analyzed by FlowJo were calculated to obtain IC50 values using GraphPad Prism 5 software (product name).
No treatment response (NTR) was set as a reference, and the degree of the phosphorylation of STAT induced by cytokines was converted into a relative ratio (% control group). A dose-response plot was obtained for each concentration-dependent activity of each test material using GraphPad Prism (version 5.0) and ICso values were calculated.

[2] = molecular target: T1, JAK3 (Homo sapiens, UniProt P52333); experiment: ADP-Glo JAK3 kinase assay; assay type: biochemical; details: read-out: IC50, In vitro enzyme JAK3
T1 sequence (P52333 1-1124): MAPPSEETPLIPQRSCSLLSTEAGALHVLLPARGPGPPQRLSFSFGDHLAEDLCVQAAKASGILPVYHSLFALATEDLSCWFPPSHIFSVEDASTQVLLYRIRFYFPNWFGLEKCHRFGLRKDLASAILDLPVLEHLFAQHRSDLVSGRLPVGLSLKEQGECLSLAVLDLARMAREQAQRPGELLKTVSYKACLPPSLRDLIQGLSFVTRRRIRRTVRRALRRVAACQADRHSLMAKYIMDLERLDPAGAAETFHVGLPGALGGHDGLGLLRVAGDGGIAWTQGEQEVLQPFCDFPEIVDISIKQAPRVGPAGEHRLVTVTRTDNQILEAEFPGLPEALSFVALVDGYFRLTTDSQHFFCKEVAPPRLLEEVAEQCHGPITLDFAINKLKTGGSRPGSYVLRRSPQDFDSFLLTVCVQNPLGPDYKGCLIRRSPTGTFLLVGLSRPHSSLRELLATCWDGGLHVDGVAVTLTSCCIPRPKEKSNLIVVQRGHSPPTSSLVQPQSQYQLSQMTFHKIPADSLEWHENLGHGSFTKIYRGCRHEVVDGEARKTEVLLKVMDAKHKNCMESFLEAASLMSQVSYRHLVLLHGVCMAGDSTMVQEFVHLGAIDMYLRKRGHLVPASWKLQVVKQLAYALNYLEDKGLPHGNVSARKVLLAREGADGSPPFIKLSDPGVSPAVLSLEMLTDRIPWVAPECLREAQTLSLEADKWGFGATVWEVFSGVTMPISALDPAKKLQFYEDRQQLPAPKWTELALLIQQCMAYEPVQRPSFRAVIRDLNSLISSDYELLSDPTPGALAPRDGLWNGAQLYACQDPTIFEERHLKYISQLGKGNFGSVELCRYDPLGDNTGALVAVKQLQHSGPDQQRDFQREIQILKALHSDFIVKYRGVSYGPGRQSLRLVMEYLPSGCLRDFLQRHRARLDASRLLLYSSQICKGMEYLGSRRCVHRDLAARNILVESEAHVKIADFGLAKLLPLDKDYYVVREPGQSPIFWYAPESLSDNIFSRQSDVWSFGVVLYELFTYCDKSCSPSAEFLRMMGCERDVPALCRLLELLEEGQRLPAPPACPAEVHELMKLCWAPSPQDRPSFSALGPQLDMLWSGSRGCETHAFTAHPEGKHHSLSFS
Procedure: 10 mM of Compound 1 was diluted in DMSO to prepare samples at four concentrations (50,000 nM, 5,000 nM, 500 nM and 50 nM). 10 mM of ATP was diluted at 1/40 in 1× kinase buffer to make a preparation. 1 mg/mL of Poly (Glu4, Tyr1) peptide was used as a stock solution. 100 ng/μL of JAK3 enzyme was diluted at 1/20 in 1× kinase buffer to make a preparation. 1 μL of ATP, 1 μL of Poly (Glu4, Tyr1) peptide, and 1 μL of Compound 1 prepared as above were mixed, after which 2 μL of JAK3 enzyme was finally added and reacted at 30° C. for 40 minutes. At this time, a tube without JAK3 enzyme was prepared as a blank and a tube without Compound 1 was prepared as a positive control group together (a final concentration of samples was 10,000 nM, 1,000 nM, 100 nM, and 10 nM).
Then, 5 μL of ADP-glo was added to each tube and reacted at 30° C. for 40 minutes, after which 10 μL of kinase detection reagent was added thereto and reacted at room temperature for 15 minutes. After 18 μL of the reactant was transferred to a 384 well plate, luminescence was measured using a plate reader.

- IC50 [1]: 774 nM
- IC50 [2]: 315 nM
SMILES: C[C@@H]1CN(C(=O)CC#N)CC=C1c1cc(NC(=O)C2CC2)nc2[nH]ccc12 [Compound 1, (S)—N-(4-(1-(2-cyanoacetyl)-3-methyl-1,2,3,6-tetrahydropyridin-4-yl)-1H-pyrrolo[2,3-b]pyridin-6-yl)cyclopropanecarboxamide]
